Data published in patent US20260021107A1, “STIMULATOR OF INTERFERON GENES AGONISTS” (INIMMUNE CORP., priority 2022, published 2026).

What was measured:
THF-ISRE cells = assay: THF luciferase activity, primary (initial) screen in THF-ISRE cells; assay type: cell-based, human; settings: inducible luciferase reporter signalling upon IRF3 activation, compounds 50 μM to 0.391 μM, 18 hours, luminescence
Description: (§1) STING molecules were screened to determine human STING pathway specificity. THF-ISRE, THF-ISRE STING knock-out (KO), and THF-ISRE TRIF/MAVS KO cell lines contain an inducible luciferase reporter construct that will signal upon IRF3 activation. THF-ISRE STING KO cell line only has the TRIF/MAVS pathway to activate IRF3. THF-ISRE TRIF/MAVS KO cell line uses only the STING pathway for IRF3 activation. Luciferase activity was determined by measuring luminescence.
(§2) The three cell lines were maintained in T-75 flasks with DMEM/High Glucose (Cytiva™, Logan, UT), Pen/Strep/Glutamine (Hyclone™, Logan, UT), and 10% heat inactivated FBS (Hyclone™, Logan, UT).
(§3) For primary screening, THF-ISRE cells were plated at a density of 15,000 cells/well in opaque flat bottom 96-well tissue culture plates. Cells incubated for 36 hours and treated with DMSO (Sigma™, St. Louis, MO) formulated compounds. Before treatment, cell media was changed to 2% FBS in DMEM with antibiotics. Compounds were serially diluted 2-fold, starting at 50 μM and ending at 0.391 μM. Luciferase activity was measured after 18 hours by addition of Steady-Glo Luciferase Assay System (Promega™, Madison, WI) at a 1:1 ratio and luminescence read by plate reader.

human STING pathway = assay: THF luciferase activity, secondary screen in THF-ISRE TRIF/MAVS KO cells (STING only); assay type: cell-based; settings: only the STING pathway for IRF3 activation
Description: as §1, §2, §3
The secondary screening used the same procedure as above with THF-ISRE STING KO and THF-ISRE TRIF/MAVS KO cells. If the compound was human STING specific, only THF-ISRE TRIF/MAVS KO cells would have luciferase activity.

CC1Sc2cc(C(=O)NCc3ccco3)ccc2N(Cc2c(O)cccc2F)C1=O (centres unmarked) [INI-3070]
luciferase activity (initial screen) (THF-ISRE cells): positive luciferase activity | luciferase activity in TRIF/MAVS KO cells (STING pathway use) (human STING pathway): use the STING pathway for luciferase activity

COc1cccc(F)c1CN1C(=O)CSc2cc(C(=O)NCc3c(F)cc(F)cc3F)ccc21 [INI-3067]
luciferase activity (initial screen) (THF-ISRE cells): positive luciferase activity | luciferase activity in TRIF/MAVS KO cells (STING pathway use) (human STING pathway): use the STING pathway for luciferase activity

O=C(NCc1c(F)cc(F)cc1F)c1ccc2c(c1)SCC(=O)N2Cc1c(O)cccc1F [INI-3069]
luciferase activity (initial screen) (THF-ISRE cells): positive luciferase activity | luciferase activity in TRIF/MAVS KO cells (STING pathway use) (human STING pathway): use the STING pathway for luciferase activity

CC1Sc2cc(C(=O)NCc3c(F)cc(F)cc3F)ccc2N(Cc2c(O)cccc2F)C1=O (centres unmarked) [INI-3071]
luciferase activity (initial screen) (THF-ISRE cells): positive luciferase activity | luciferase activity in TRIF/MAVS KO cells (STING pathway use) (human STING pathway): use the STING pathway for luciferase activity
